Experimental data reported in patent publication US20240285679A1, “COMPOSITIONS AND METHODS FOR VISION IMPROVEMENT” (Azura Ophthalmics Ltd., priority 2021, published 2024).

Tested on: Patients with vision loss
Assay: Clinical evaluation of vision improvement (OSDI vision assessment)
Type: in vivo
Settings: for course of OSDI vision improvement over the follow-up: follow-up at two weeks, one month, six weeks and 3 months; for vision, change from baseline as assessed by the OSDI vision assessment: twice a week on the lower eyelid of both eyes, FIGS. 2A-2C
Procedure: Patients with vision loss were treated with control (N=26) or a drug formulation comprising 0.1% selenium disulfide (n=9), 0.5% selenium disulfide (n=26), or 1% selenium disulfide (n=34). Treatment consisted of twice a week application of the drug product on the lower eyelid of both eyes. Patients were followed up and their vision was assessed with an Ocular Surface Disease Index (OSDI) vision assessment after two weeks, one month, six weeks, and 3 months.

For selenium disulfide, the “course of OSDI vision improvement over the follow-up” value (0.5% selenium disulfide) was “continued improvement from 2 weeks to three months”, the “course of OSDI vision improvement over the follow-up” value (1% selenium disulfide) was “continued improvement from 2 weeks to three months” and the “vision, change from baseline as assessed by the OSDI vision assessment” value (drug formulation comprising 0.5% selenium disulfide) was “improvement in vision”. The “vision, change from baseline as assessed by the OSDI vision assessment” value (drug formulation comprising 1% selenium disulfide) was “improvement in vision”.
